Measured values as given in patent US20250296959A1, “B7-H3 TARGETING PEPTIDES AND CONSTRUCTS THEREOF” (Mariana Oncology Inc., priority 2024, published 2025).
Starred links: 1 amine or outer side, 2 acyl side, 3 side chain; linkers in the order of their positions; H or OH if unused. Positions of bridges follow the written chain, without caps; N, C: chain ends. Non-standard residues stand in square brackets, D forms with d. Residues, ends and D or L forms follow the SMILES beside them. Groups on a side chain read outwards from the residue. *: point of attachment. Ala(1-CH2CO2H-4-piperidyl) = N[C@@H](CC1CCN(CC(=O)O)CC1)C(=O)O; Ala(piperidin-4-yl) = O=C([C@H](CC1CCN([*:3])CC1)N[*:1])[*:2]; DOTA = O=C(O)CN1CCN(CC(=O)O)CCN(CC(=O)*)CCN(CC(=O)O)CC1; Trp(5-F) = N[C@@H](Cc1c[nH]c2ccc(F)cc12)C(=O)O; X13 = NC(=O)N1CCC(C[C@H](N[*:1])C(=O)[*:2])CC1; X1 = C[C@@H](c1ccccc1)[C@H](N[*:1])C(=O)[*:2]; γGlu = O=C(O)[C@H](CCC(=O)[*:2])N[*:1]; 1Nal = N[C@@H](Cc1cccc2ccccc12)C(=O)O; Ala(4-THP) = N[C@@H](CC1CCOCC1)C(=O)O; Val(3-OH) = CC(C)(O)[C@H](N)C(=O)O; hCha = N[C@@H](CCC1CCCCC1)C(=O)O; PEG4 = NCCOCCOCCOCCOCCC(=O)O; Tle = CC(C)(C)[C@H](N)C(=O)O; hLeu = CC(C)CC[C@H](N)C(=O)O; PEG1 = NCCOCCC(=O)O

The compounds below were run against T1, human 4lg B7-H3 (Homo sapiens, UniProt Q5ZPR3) (assay: Affinity determination by surface plasmon resonance (SPR) to 4Ig B7-H3). Details: SPR KD—25° C., 4Ig B7-H3; 25° C. flow cell temperature.
T1 sequence (Q5ZPR3 29-534): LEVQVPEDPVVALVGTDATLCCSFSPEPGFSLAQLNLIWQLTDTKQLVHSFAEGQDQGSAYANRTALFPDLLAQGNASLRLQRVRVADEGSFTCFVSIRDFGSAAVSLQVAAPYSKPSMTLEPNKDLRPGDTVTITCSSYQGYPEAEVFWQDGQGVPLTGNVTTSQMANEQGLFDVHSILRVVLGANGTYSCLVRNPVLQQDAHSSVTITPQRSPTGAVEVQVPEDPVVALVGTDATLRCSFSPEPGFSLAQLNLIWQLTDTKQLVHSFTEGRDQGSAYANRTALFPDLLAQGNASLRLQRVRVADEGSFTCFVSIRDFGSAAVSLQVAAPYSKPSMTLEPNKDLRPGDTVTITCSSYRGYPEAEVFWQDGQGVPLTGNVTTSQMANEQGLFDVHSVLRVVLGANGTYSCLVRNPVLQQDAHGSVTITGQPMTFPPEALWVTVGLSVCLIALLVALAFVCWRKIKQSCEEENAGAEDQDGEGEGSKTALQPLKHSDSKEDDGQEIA
`CC(=O)N[C@@H](CCC(C)C)C(=O)N[C@@H](Cc1ccc(O)cc1)C(=O)N[C@H]1CSSC[C@@H](C(=O)N[C@@H](Cc2cccc3ccccc23)C(=O)N[C@@H](Cc2ccccc2)C(=O)N2CCC[C@H]2C(=O)N[C@H](CCCCNC(=O)CC[C@H](NC(=O)CC[C@H](NC(=O)CN2CCN(CC(=O)O)CCN(CC(=O)O)CCN(CC(=O)O)CC2)C(=O)O)C(=O)O)C(N)=O)NC(=O)[C@H](Cc2ccc(O)cc2)NC(=O)[C@H](C(C)C)NC(=O)[C@H](CC(=O)O)NC(=O)[C@H](CC2CCOCC2)NC(=O)[C@H](CCCCN)NC(=O)CNC(=O)[C@H](C(C)(C)C)NC1=O` [compound 275, Ac-hLeu-Y-C-Tbg-G-K-ThpA-D-V-Y-C-1Nal-F-Pro-dLys(gE-gE-DOTA)-CONH2] (Ac-[hLeu]YC[Tle]GK[Ala(4-THP)]DVYC[1Nal]FP[dK]([γGlu-γGlu-DOTA])-NH2; disulfide 3-11) gave a Kd of 1 to 10 nM.

Same assay, conditions: SPR KD—37° C., 4Ig B7-H3; 37° C. flow cell temperature
`CC(=O)N[C@@H](CCC(C)C)C(=O)N[C@@H](Cc1ccc(O)cc1)C(=O)N[C@H]1CSSC[C@@H](C(=O)N[C@@H](Cc2c[nH]c3ccc(F)cc23)C(=O)N[C@H](C(=O)N[C@H](C(=O)N[C@H](C)C(=O)O)C(C)(C)O)[C@@H](C)c2ccccc2)NC(=O)[C@H](Cc2ccc(O)cc2)NC(=O)[C@H](C(C)C)NC(=O)[C@H](CC(=O)O)NC(=O)[C@H](CC2CCN(C(=O)CCOCCOCCOCCOCCNC(=O)CN3CCN(CC(=O)O)CCN(CC(=O)O)CCN(CC(=O)O)CC3)CC2)NC(=O)[C@H](CC2CCN(C(N)=O)CC2)NC(=O)CNC(=O)[C@H](C(C)(C)C)NC1=O` [compound 514, Ac-hLeu-Y-C-Tbg-G-Pip(CONH2)Ala-Pip(PEG4-DOTA)Ala-D-V-Y-C-5FW-[(2S, 3S)beta-Me-Phe]-hydroxyVal-dAla-COOH] (Ac-[hLeu]YC[Tle]G[X13][Ala(piperidin-4-yl)]([PEG4-DOTA])DVYC[Trp(5-F)][X1][Val(3-OH)][dA]-OH; disulfide 3-11) was tested, and the Kd was < 1 nM. For `CC(C)CC[C@H](NC(=O)CCOCCNC(=O)[C@H](CCC(=O)O)NC(=O)CN1CCN(CC(=O)O)CCN(CC(=O)O)CCN(CC(=O)O)CC1)C(=O)N[C@@H](Cc1ccc(O)cc1)C(=O)N[C@H]1CSSC[C@@H](C(=O)N[C@@H](Cc2c[nH]c3ccc(F)cc23)C(=O)N[C@@H](Cc2ccccc2)C(=O)N[C@H](C(N)=O)C(C)(C)O)NC(=O)[C@H](Cc2ccc(O)cc2)NC(=O)[C@H](C(C)C)NC(=O)[C@H](CC(=O)O)NC(=O)[C@H](CC2CCOCC2)NC(=O)[C@H](CCCCN)NC(=O)CNC(=O)[C@H](C(C)(C)C)NC1=O` [compound 394, DOTA-Glu-PEG1-hLeu-Y-C-Tbg-G-K-ThpA-D-V-Y-C-5FW-F-hydroxyVal-CONH2] ({DOTA}-E[PEG1][hLeu]YC[Tle]GK[Ala(4-THP)]DVYC[Trp(5-F)]F[Val(3-OH)]-NH2; disulfide 5-13), the Kd was 1 to 10 nM. Work on `CC(=O)N[C@@H](CCC(C)C)C(=O)N[C@@H](Cc1ccc(O)cc1)C(=O)N[C@H]1CSSC[C@@H](C(=O)N[C@@H](Cc2c[nH]c3ccc(F)cc23)C(=O)N[C@@H](Cc2ccccc2)C(=O)N[C@H](C(=O)O)[C@@H](C)O)NC(=O)[C@H](Cc2ccc(O)cc2)NC(=O)[C@H](C(C)C)NC(=O)[C@H](CC(=O)O)NC(=O)[C@H](CC2CCN(CC(=O)O)CC2)NC(=O)[C@H](CCCCNC(=O)CN2CCN(CC(=O)O)CCN(CC(=O)O)CCN(CC(=O)O)CC2)NC(=O)CNC(=O)[C@H](C(C)(C)C)NC1=O` [compound 326, Ac-hLeu-Y-C-Tbg-G-Lys(DOTA)-Pip(CH2COOH)Ala-D-V-Y-C-5FW-F-Thr-COOH] (Ac-[hLeu]YC[Tle]GK(DOTA)[Ala(1-CH2CO2H-4-piperidyl)]DVYC[Trp(5-F)]FT-OH; disulfide 3-11) yielded a Kd of 10 to 100 nM. `CC(=O)N[C@@H](CCC1CCCCC1)C(=O)N[C@@H](Cc1ccc(O)cc1)C(=O)N[C@H]1CSSC[C@@H](C(=O)N[C@@H](Cc2c[nH]c3ccc(F)cc23)C(=O)N[C@@H](Cc2ccccc2)C(=O)N[C@H](C(=O)N[C@H](CCCCNC(=O)CN2CCN(CC(=O)O)CCN(CC(=O)O)CCN(CC(=O)O)CC2)C(=O)O)C(C)(C)O)NC(=O)[C@H](Cc2ccc(O)cc2)NC(=O)[C@H](C(C)C)NC(=O)[C@H](CC(=O)O)NC(=O)[C@H](CC2CCOCC2)NC(=O)[C@H](CC2CCNCC2)NC(=O)CNC(=O)[C@H](C(C)(C)C)NC1=O` [compound 442, Ac-hCha-Y-C-Tbg-G-PipAla-ThpA-D-V-Y-C-5FW-F-hydroxyVal-dLys(DOTA)-COOH] (Ac-[hCha]YC[Tle]G[Ala(piperidin-4-yl)][Ala(4-THP)]DVYC[Trp(5-F)]F[Val(3-OH)][dK](DOTA)-OH; disulfide 3-11) was tested, and the Kd was < 1 nM. Compound `CC(=O)N[C@@H](CCC(C)C)C(=O)N[C@@H](Cc1ccc(O)cc1)C(=O)N[C@H]1CSSC[C@@H](C(=O)N[C@@H](Cc2c[nH]c3ccc(F)cc23)C(=O)N[C@@H](Cc2ccccc2)C(=O)N[C@H](C(=O)O)C(C)(C)O)NC(=O)[C@H](Cc2ccc(O)cc2)NC(=O)[C@H](C(C)C)NC(=O)[C@H](CC(=O)O)NC(=O)[C@H](CC2CCOCC2)NC(=O)[C@H](CC2CCN(C(=O)CN3CCN(CC(=O)O)CCN(CC(=O)O)CCN(CC(=O)O)CC3)CC2)NC(=O)CNC(=O)[C@H](C(C)(C)C)NC1=O` [compound 342, Ac-hLeu-Y-C-Tbg-G-Pip(DOTA)Ala-ThpA-D-V-Y-C-5FW-F-hydroxyVal-COOH] (Ac-[hLeu]YC[Tle]G[Ala(piperidin-4-yl)](DOTA)[Ala(4-THP)]DVYC[Trp(5-F)]F[Val(3-OH)]-OH; disulfide 3-11) has a Kd of 10 to 100 nM.
